According to publication PMC11111408, “Concurrent inhibition of oncogenic and wild-type RAS-GTP for cancer therapy” (Nature, 2024):
Where “and” joins values, the source holds several entries; their conditions need not be identical. Equal values may be shown once. Read-outs that look alike come from different tables or passages of the source.

How the values were obtained:
Capan-1 cells [1] = experiment: Cell proliferation (CTG); type: cell-based; conditions: Homo sapiens; Capan-1, CTG; (95% CI)
Method: (§1) Alternatively, cells were seeded in round-bottom ultra-low attachment 96-well plates, centrifuged at 1,000 rpm for 10 min to pellet the cells, and incubated overnight or up to 72 h to allow for 3D spheroid formation. […] Cell viability was determined by CellTiter-Glo 2.0 reagent (2D CTG) (Promega, G9243) or 3D CellTiter-Glo reagent (3D CTG) (Promega, G9683) according to the manufacturer’s protocols. Luminescence was detected using a SpectraMax M5 Plate Reader (Molecular Devices) of Perkin Elmer Enspire. Luminescence signal was normalized to vehicle-treated wells (normalized signal (%) = (luminescence (treated)/mean luminescence (vehicle)) × 100%). […] Data were plotted as log [inhibitor (M)], and a four-parameter sigmoidal concentration response model was fitted to the data to calculate EC50. […] Pa16C MEK1 mutant cells were evaluated by live-cell counting using Calcein AM and a SpectraMax i3X multi-mode detection platform (Molecular Devices). Growth percentages were calculated by normalizing the treated cell counts to their respective untreated cell counts.

CYPA = biological target: T1, CYPA (Homo sapiens, UniProt P62937); experiment: CYPA binding affinity (Kd1), SPR; conditions: steady state, (95% CI)
T1 construct: His6-TEV-AviTag-CYPA (full-length); His6-TEV (N); made in house; host or cells: BL21(DE3) Escherichia coli
Method: The binding affinity of compounds for CYPA (Kd1) was assessed by SPR on a Biacore 8K instrument as previously described.

Capan-1 cells [2] = experiment: Cellular ERK phosphorylation (pERK); type: cell-based; conditions: Homo sapiens; Capan-1 (KRAS^G12V PDAC); (95% CI)
A375 cells [3] = experiment: Cellular ERK phosphorylation (pERK); type: cell-based, human; conditions: Homo sapiens, A-375; A375 (BRAF^V600E)
A375 cells [4] = experiment: Cell proliferation (CTG); type: cell-based, human; conditions: Homo sapiens, A-375; A375, CTG; (95% CI)
Method: as §1

KRAS^G12V = KRAS^G12V (Homo sapiens, UniProt P01116+P62937, G12V); experiment: RAS binding affinity of compound-bound CYPA (Kd2), SPR; parameters: His6-TEV (N); made in house; host or cells: BL21(DE3) Escherichia coli; conditions: steady state, (95% CI)
[5] = test system: AsPC-1 and NCI-H441 cells; experiment: pERK (MSD) and proliferation (CTG) in AsPC-1 and NCI-H441 cells, CYPA inhibitor co-treatment or PPIA KO; type: cell-based, human; conditions: for activity at 0.00046 µM: 0.46 nM
RAS-less MEFs = experiment: Western blots of isogenic RAS-less MEF cells expressing KRAS variants or BRAF(V600E); type: cell-based, mouse; conditions: 24 h, western blot
[6] = Oral bioavailability in mice (LC-MS/MS of blood); type: in vivo; conditions: mouse, whole blood, read-out: Oral Bioavailability m%F
[7] = test system: Pa16C cells expressing MEK1 mutants; experiment: Proliferation (Calcein AM) of Pa16C cells expressing MEK1 mutants; type: cell-based, human
[8] = test system: NCI-H441, HPAC and SW620 CDX models; experiment: CDX models, RMC-7977 versus SHP2 and MEK inhibitors; conditions: three KRAS^G12X models; RMC-7977 10 mg kg^−1 once daily, RMC-4550 20 mg kg^−1 every 2 days, cobimetinib 2.5 mg kg^−1 once daily, alone or in combination
Method: Data are mean ± s.e.m. of 3–18 mice per group.
Female BALB/c nude mice, NOD SCID and NSG mice 6-8 weeks old from Beijing Vital River/VR Laboratory Animal Co., LTD, Beijing AniKeeper Biotech Co., Ltd., Shanghai Sino-British SIPPR/BK Laboratory Animal Co., LTD and The Jackson Laboratory were used. Animals were housed in polycarbonate cages, in an environmentally monitored, well ventilated room maintained at a constant temperature of 20-26°C and relative humidity of 40-80%. Fluorescent lighting provided illumination approximately 12 hours per day. Each mouse was inoculated at the right flank with tumor cells (2x10^6-1x10^7) in 100-200 µL of media/PBS supplemented with Matrigel (1:1). Treatments were started when the average tumor size reached 100-250 mm^3. […] Mice on studies were weighed and tumor measurements collected twice weekly. Human primary cancer xenograft models were generated using fresh cancer tumor fragments obtained from hospitals with informed consent from the patients in accordance with protocols approved by the Hospital Institutional Ethical Committee (IEC). Tumor fragments were serial-passaged in BABL/c nude mice and then cryopreserved. Cryopreserved tumors were recovered by implantation in BALB/c nude mice and further serial passaged and frozen for study implantation use. Recovered tumor fragments of about 15-30 mm3 in size from each model were implanted into right flanks of Balb/c nude mice. Treatment started when average tumor volume reached 100-250mm^3. For efficacy study, Animals were assigned to study groups using stratified randomization based upon their tumor volumes (n=3-10/group). […] Animals were treated for 28 days (or up to 110 for selected models) or an earlier time if tumor burden reached humane endpoint. Mean ± s.e.m was plotted in the waterfall plots. The dashed line on waterfall plot indicates a 10% reduction in tumor volume from baseline. […] Body weights were collected twice a week during the study. For single-dose pharmacokinetic/pharmacodynamics (PK/PD) study, mice were randomized into treatment groups when mean tumor volume reached 400-600 mm^3.

CCn1c(-c2cc(N3CCN(C)CC3)cnc2[C@H](C)OC)c2c3cc(ccc31)-c1csc(n1)C[C@H](NC(=O)[C@H]1CCO1)C(=O)N1CCC[C@H](N1)C(=O)OCC(C)(C)C2 [Compound 4]
EC50 (Capan-1 cells [1]): 0.0142 µM | Kd (CYPA): 0.605 µM | EC50 (Capan-1 cells [2]): 0.00194 µM | EC50 (A375 cells [3]): > 10 µM | EC50 (A375 cells [4]): 6.95 µM | Kd (KRAS^G12V): 0.292 µM

CC(=O)Nc1cccc(-n2c(=O)n(C3CC3)c(=O)c3c(Nc4ccc(I)cc4F)n(C)c(=O)c(C)c32)c1 [trametinib, reference compound]
effect of disruption of the PPIA locus on sensitivity ([5]; AsPC-1 and NCI-H441, pERK and proliferation): did not affect sensitivity | activity at 16.9 pM ([5]; Homo sapiens, ASPC1, AsPC-1, […], read-out: pERK inhibition in PPIA KO cells treated with trametinib): 106% | activity at 0.00046 µM ([5]; Homo sapiens, ASPC1, AsPC-1 PPIA KO, read-out: pERK inhibition in PPIA KO cells treated with trametinib): 47% | activity at 0.00412 µM ([5]; Homo sapiens, ASPC1, AsPC-1 PPIA KO, 4.12 nM, read-out: Proliferation inhibition in PPIA KO cells treated with trametinib): 25.5% | activity at 0.037 µM ([5]; Homo sapiens, ASPC1, AsPC-1 PPIA KO, 37.00 nM, read-out: Proliferation inhibition in PPIA KO cells treated with trametinib): 9.16% | activity at 0.333 µM ([5]; Homo sapiens, ASPC1, AsPC-1 PPIA KO, 333.00 nM, read-out: Proliferation inhibition in PPIA KO cells treated with trametinib): 4.83% | activity at 50 pM ([5]; Homo sapiens, NCI-H441, NCI-H441, 0.05 nM, read-out: Proliferation inhibition in PPIA KO cells treated with trametinib): 120% | activity at 0.00412 µM ([5]; Homo sapiens, NCI-H441, NCI-H441, 4.12 nM, read-out: Proliferation inhibition in PPIA KO cells treated with trametinib): 49.5% | activity at 0.037 µM ([5]; Homo sapiens, NCI-H441, NCI-H441, 37.00 nM, read-out: Proliferation inhibition in PPIA KO cells treated with trametinib): 44.6% | activity at 0.333 µM ([5]; Homo sapiens, NCI-H441, NCI-H441, 333.00 nM, read-out: Proliferation inhibition in PPIA KO cells treated with trametinib): 42.2% | activity at 1 µM ([5]; Homo sapiens, NCI-H441, NCI-H441, 1000.00 nM, read-out: Proliferation inhibition in PPIA KO cells treated with trametinib): 35.6% | activity at 0.00046 µM ([5]; Homo sapiens, NCI-H441, NCI-H441 PPIA KO, read-out: pERK inhibition in PPIA KO cells treated with trametinib): 59% | activity at 0.00412 µM ([5]; Homo sapiens, NCI-H441, NCI-H441 PPIA KO, 4.12 nM, read-out: Proliferation inhibition in PPIA KO cells treated with trametinib): 47% | activity at 0.037 µM ([5]; Homo sapiens, NCI-H441, NCI-H441 PPIA KO, 37.00 nM, read-out: Proliferation inhibition in PPIA KO cells treated with trametinib): 40.9% | activity at 0.333 µM ([5]; Homo sapiens, NCI-H441, NCI-H441 PPIA KO, 333.00 nM, read-out: Proliferation inhibition in PPIA KO cells treated with trametinib): 37.7% | activity at 1 µM ([5]; Homo sapiens, NCI-H441, NCI-H441 PPIA KO, 1000.00 nM, read-out: Proliferation inhibition in PPIA KO cells treated with trametinib): 28.5% | pERK suppression in RAS-less MEFs (RAS-less MEFs): reduced pERK similarly in all cells

CCn1c(-c2cccnc2[C@H](C)OC)c2c3cc(ccc31)-c1csc(n1)C[C@H](NC(=O)[C@H]1CCO1)C(=O)N1CCC[C@H](N1)C(=O)OCC(C)(C)C2 [Compound 3]
EC50 (Capan-1 cells [1]): 0.615 µM | Kd (CYPA): 6.27 µM | EC50 (Capan-1 cells [2]): 0.124 µM | EC50 (A375 cells [3]): > 10 µM | EC50 (A375 cells [4]): > 10 µM | Kd (KRAS^G12V): 0.818 µM | bioavailability [6]: 44%

O=C(Nc1ccc2[nH]nc(-c3ccncc3)c2c1)[C@@H]1CCN(CC(=O)N2CCN(c3ccc(-c4ncccn4)cc3)CC2)C1 [SCH772984]
Proliferation of Pa16C cells expressing MEK1 mutant constructs ([7]; MEK1E102-I103del, inhibitor 0.046 nM): 102.4 and 93.7 and 111.1 and 109.2 | Proliferation of Pa16C cells expressing MEK1 mutant constructs ([7]; MEK1E102-I103del, inhibitor 0.412 nM): 88.7 and 97.2 and 116.5 and 112.2 | Proliferation of Pa16C cells expressing MEK1 mutant constructs ([7]; MEK1E102-I103del, inhibitor 1.235 nM): 62.5 and 77.2 and 97.3 and 86.7 | Proliferation of Pa16C cells expressing MEK1 mutant constructs ([7]; MEK1K57N, inhibitor 0.046 nM): 116 and 117.1 and 131.7 and 130.6 | Proliferation of Pa16C cells expressing MEK1 mutant constructs ([7]; MEK1K57N, inhibitor 0.412 nM): 139 and 146.7 and 118.9 and 144.8 | Proliferation of Pa16C cells expressing MEK1 mutant constructs ([7]; MEK1K57N, inhibitor 1.235 nM): 153.6 and 157.6 and 123.4 and 129.5 | Proliferation of Pa16C cells expressing MEK1 mutant constructs ([7]; MEK1K57N, inhibitor 3.704 nM): 116.2 and 140.9 and 100.4 and 107.4 | Proliferation of Pa16C cells expressing MEK1 mutant constructs ([7]; MEK1K57N, inhibitor 11.111 nM): 83.1 and 119.2 and 75.2 and 67 | Proliferation of Pa16C cells expressing MEK1 mutant constructs ([7]; MEK1Q56P, inhibitor 0.046 nM): 136.2 and 107 and 127.7 and 113.2 | Proliferation of Pa16C cells expressing MEK1 mutant constructs ([7]; MEK1Q56P, inhibitor 0.412 nM): 178.1 and 122.6 and 149.9 and 115.3 | Proliferation of Pa16C cells expressing MEK1 mutant constructs ([7]; MEK1Q56P, inhibitor 1.235 nM): 166.6 and 134 and 125.8 and 104.6 | Proliferation of Pa16C cells expressing MEK1 mutant constructs ([7]; MEK1Q56P, inhibitor 3.704 nM): 131.2 and 128.6 and 108.4 and 83.5 | Proliferation of Pa16C cells expressing MEK1 mutant constructs ([7]; MEK1S218D/S222D, inhibitor 0.046 nM): 105.3 and 97.5 and 108.4 and 102.6 | Proliferation of Pa16C cells expressing MEK1 mutant constructs ([7]; MEK1S218D/S222D, inhibitor 0.412 nM): 90.3 and 97.7 and 107.5 and 108.3 | Proliferation of Pa16C cells expressing MEK1 mutant constructs ([7]; MEK1S218D/S222D, inhibitor 1.235 nM): 59.2 and 93.4 and 100.5 and 90.2 | Proliferation of Pa16C cells expressing MEK1 mutant constructs ([7]; MEK1WT, inhibitor 0.046 nM): 113.6 and 107.4 and 114.6 and 111.6 | Proliferation of Pa16C cells expressing MEK1 mutant constructs ([7]; MEK1WT, inhibitor 0.412 nM): 127.4 and 95.8 and 106.8 and 108.8 | Proliferation of Pa16C cells expressing MEK1 mutant constructs ([7]; MEK1WT, inhibitor 1.235 nM): 95.9 and 89.3 and 90.3 and 82.4 | Proliferation of Pa16C cells expressing MEK1 mutant constructs ([7]; MEK1WT, inhibitor 3.704 nM): 49.4 and 66.6 and 61 and 49.7 | Proliferation of Pa16C cells expressing MEK1 mutant constructs ([7]; MEK1WT, inhibitor 11.111 nM): 29.9 and 38 and 33.3 and 24.2

CCn1c(-c2cccnc2[C@H](C)OC)c2c3cc(ccc31)-c1csc(n1)C[C@H](NC(=O)[C@H](C(C)C)N(C)C(C)=O)C(=O)N1CCC[C@H](N1)C(=O)OCC(C)(C)C2 [Compound 2]
EC50 (Capan-1 cells [1]): 0.149 µM | Kd (CYPA): 0.33 µM | EC50 (Capan-1 cells [2]): 0.0316 µM | EC50 (A375 cells [3]): > 10 µM | EC50 (A375 cells [4]): > 10 µM | bioavailability [6]: 0.4%

O=C(c1ccc(F)c(F)c1Nc1ccc(I)cc1F)N1CC(O)([C@@H]2CCCCN2)C1 [cobimetinib]
anti-tumour activity [8]: only modest tumour growth inhibition

Cc1nc(N2CCC3(CC2)CO[C@@H](C)[C@H]3N)c(CO)nc1-c1cccc(Cl)c1Cl [RMC-4550]
anti-tumour activity [8]: only modest tumour growth inhibition
